Data reported in patent US20050130890A1, “Amyloid beta is a ligand for FPR class receptors” (priority 2001, published 2005).

Experiments:
FPR = biological target: T1, FPR (Homo sapiens, UniProt P21462); assay: Ca2+ mobilization in ETFR cells (RBL-2H3 transfected with epitope-tagged FPR); assay type: cell-based
T1 construct: expressed in transfected cells; host or cells: RBL-2H3 (rat basophilic leukemia)
T1 sequence (P21462 1-350): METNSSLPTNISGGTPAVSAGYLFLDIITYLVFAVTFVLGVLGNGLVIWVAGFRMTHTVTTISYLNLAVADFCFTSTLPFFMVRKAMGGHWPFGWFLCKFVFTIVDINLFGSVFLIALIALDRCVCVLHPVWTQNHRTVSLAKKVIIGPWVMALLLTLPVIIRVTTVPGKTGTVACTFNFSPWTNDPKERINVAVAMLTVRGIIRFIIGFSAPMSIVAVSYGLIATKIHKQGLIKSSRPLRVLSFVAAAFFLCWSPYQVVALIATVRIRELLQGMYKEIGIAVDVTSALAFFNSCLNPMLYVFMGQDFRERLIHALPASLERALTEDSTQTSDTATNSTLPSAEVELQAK
From the text: (§1) Reagents and cells. Aβ peptide (Aβ42) and the peptide with reversed sequence (Aβ42-1) were purchased from California Peptide Research (Napa, Calif.). All peptides were examined for endotoxin contamination and were negative at highest concentrations used in the study. Human peripheral blood monocytes were isolated from buffy coats (National Institutes of Health Clinical Center, Bethesda, Md.) enriched for mononuclear cells by using iso-osmotic Percoll gradient. The purity of the cell preparations was examined by morphology and was >90%. […]
(§2) Chemotaxis assays and measurement of calcium mobilization. […] The results were expressed as the mean number (±SD) of migrated cells in three high-powered fields in three replicate samples. […] Ca^+ mobilization was measured by stimulating fura-2 AM-loaded human monocytes or receptor-transfected cells with various agents (Deng X. et al. 1999 Blood 94:1165-1673; Su S. B. et al. 1999 J Exp Med 189:395-402) and recording the ratio of fluorescence at 340 and 380 nm in a luminescence spectrometer with FL WinLab program (Perkin-Elmer, Beaconsfield, UK).

human monocytes [1] = assay: Ca2+ mobilization in fura-2 loaded human monocytes; assay type: cell-based
From the text: (§3) Reagents and cells. Aβ peptide (Aβ42) and the peptide with reversed sequence (Aβ42-1) were purchased from California Peptide Research (Napa, Calif.). All peptides were examined for endotoxin contamination and were negative at highest concentrations used in the study. Human peripheral blood monocytes were isolated from buffy coats (National Institutes of Health Clinical Center, Bethesda, Md.) enriched for mononuclear cells by using iso-osmotic Percoll gradient. The purity of the cell preparations was examined by morphology and was >90%. Rat basophilic leukemia cell line (RBL-2H3) transfected with epitope-tagged N-formylpeptide receptor (FPR) (designated ETFR) was a kind gift of Dr. R. Snyderman (Duke University, Durham, N.C.). cDNA cloning and establishment of FPRL1-transfected human embryonic kidney (HEK) 293 cells (FPRL1/293) were described previously (Gao J. L. & Murphy P. M. 1993 J Biol Chem 268:[…]). All the transfected cells were maintained in culture media as described (Su S. B. et al. 1999 J Exp Med 189:395-402).
(§4) Chemotaxis assays and measurement of calcium mobilization. Chemotaxis assays were performed using 48-well chemotaxis chambers (Deng X. et al. 1999 Blood 94:1165-1673). The results were expressed as the mean number (±SD) of migrated cells in three high-powered fields in three replicate samples. Chemotaxis index, which represented the fold increase in the number of cells migrated in response to chemoattractants over the cell response to control medium, also was used. Ca^+ mobilization was measured by stimulating fura-2 AM-loaded human monocytes or receptor-transfected cells with various agents (Deng X. et al. 1999 Blood 94:1165-1673; Su S. B. et al. 1999 J Exp Med 189:395-402) and recording the ratio of fluorescence at 340 and 380 nm in a luminescence spectrometer with FL WinLab program (Perkin-Elmer, Beaconsfield, UK).

FPRL1 [2] = biological target: T2, FPRL1 (Homo sapiens, UniProt P25090); assay: Ca2+ mobilization in FPRL1/293 cells; assay type: cell-based
T2 construct: expressed in transfected cells; host or cells: HEK 293
T2 sequence (P25090 1-351): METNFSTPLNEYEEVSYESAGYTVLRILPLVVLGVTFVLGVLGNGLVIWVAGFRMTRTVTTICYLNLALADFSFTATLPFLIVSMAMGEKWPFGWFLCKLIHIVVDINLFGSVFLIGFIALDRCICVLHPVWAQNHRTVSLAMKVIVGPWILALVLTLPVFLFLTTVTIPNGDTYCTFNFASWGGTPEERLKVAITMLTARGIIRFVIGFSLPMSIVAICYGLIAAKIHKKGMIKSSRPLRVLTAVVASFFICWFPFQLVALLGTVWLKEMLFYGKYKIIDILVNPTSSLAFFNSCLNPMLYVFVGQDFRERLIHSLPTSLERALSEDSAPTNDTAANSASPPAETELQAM
From the text: as §1, §2

[3] = biological target: mouse N-formylpeptide receptor 2 (FPR2), on transfected HEK 293 cells or endogenous on mouse neutrophils and N9 microglial cells (mouse) (UniProt O88536); assay: cell-based or functional assay
mouse neutrophils [4] = assay: Superoxide production in mouse neutrophils (Diogenes chemiluminescence); assay type: cell-based
Protocol: The cell population was consistently composed of >90% neutrophils, as determined by light microscopy of DiffQuick-stained cytospins. Thus, hereafter we will refer to this cell preparation as neutrophils. Superoxide Production. […] Then a mixture of the superoxide-specific chemiluminescence indicator reagent Diogenes (National Diagnostics, Atlanta, Ga.) was added to the cells (50% of total reaction volume) with appropriate stimuli or vehicle control, and superoxide dismutase-inhibitable chemiluminescence was measured in a luminometer (Labsystems Luminoskan; Helsinki, Finland). […] For sequential stimulation experiments, 5×10^4 FPR −/− neutrophils were distributed into microcentrifuge tubes, and test substances were added. The mixture was then immediately transferred to a chemiluminescence plate. After incubation at 37° C. for 8 min (when fMLF was the first stimulus) or 9 min (when Aβ was the first stimulus), Diogenes reagent plus the final stimulus was added, and the activity was monitored for 10 min. […] Each condition was tested in triplicate, and the mean of the mean number (grand mean) of superoxide dismutase-inhibitable relative light units throughout the duration of the assay and the corresponding standard errors of grand means were calculated. […]

mouse neutrophils [5] = conditions: neutrophils from wild type mice, cited from earlier work
human monocytes [6] = assay: Chemotaxis (migration) of human monocytes, 48-well chamber; assay type: cell-based
From the text: as §3, §4

FPRL1 [7] = biological target: T2, FPRL1; assay: Chemotaxis of FPRL1/293 cells; assay type: cell-based
From the text: as §1, §2

macrophages [8] = assay: Congo red histochemistry of macrophages (fibril formation); assay type: cell-based, human
Protocol: Congo red histochemistry. Cells on chamber slides were fixed with 4% paraformaldehyde and stained with hematoxylin for 2 min at room temperature. After 20 min incubation in a saturated NaCl solution containing 80% ethanol and 0.1% NaOH, the slides were reacted for 20 min with 0.2% Congo red. Destaining and dehydration were completed by washing the slides sequentially in 95% ethanol and 100% ethanol, followed by xylene. Coverslips were applied using Permount and the slides were viewed under light microscopy.

FPRL1 [9] = biological target: T2, FPRL1; assay: FPRL1 internalization in FPRL1/293 cells, fluorescence confocal microscopy; assay type: cell-based
Protocol: (§5) Human peripheral blood monocytes (PBM) were isolated from Buffy coats (Transfusion Medicine Department, NIH Clinical Center, Bethesda, Md.) by using iso-osmotic Percoll gradient. The purity of cell preparations by morphology was >90%. PBM were further differentiated to macrophages by culturing the cells in RPMI 1640 medium containing 0.1% bovine serum albumin, 0.01M HEPES (pH 7.4), and 20 ng/ml monocyte colony stimulating factor (MCSF, Pepro Tech, Rocky Hill, N.J.). The cells were plated on 4-well chamber slides (Nalge Nunc International, Rochester, N.Y.) at a density of 1×10^5 cells/well. HEK293 cells genetically engineered to express FPRL1 cDNA (FPRL1/293 cells) were kindly provided by Dr. P. M. Murphy (National Institute of Allergy and Infectious Diseases, NIH). FPRL1/293 cells were suspended in DMEM supplemented with 10% FBS (Hyclone, Logan, Utah), 1 mM glutamine (Gibco-BRL, Grand Island, N.Y.), and 800 μg/ml geneticin (G418, Gibco-BRL). The cells were also plated on 4-well chamber slides at a density of 2×10^5 cells/well.
Fluorescence confocal microscope. Human macrophages or FPRL1/293 cells grown on chamber slides were treated with FPRL1 agonists for different periods at 37° C. The cells were fixed in 4% paraformaldehyde for 10 min at room temperature. Slides were washed with PBS and incubated with 5% normal goat serum (Sigma) in PBS, 0.05% Tween-20 (PBS-T-NGS), for 1 h to block nonspecific binding sites and for permeabilization. The anti-Aβ42 and anti-FPRL1 antibodies were applied and the slides were incubated for 1 h at room temperature. […] The slides were mounted with an anti-fade, water-based mounting medium with 4,6-diamidino-2-phenylindole (DAPI; Vector Lab, Burlingame, Calif.) and analyzed under a laser scanning confocal fluorescence microscope (Leica TCS-4D DMIRBE, Heidelberg, Germany). Excitation wavelengths of 365 (for DAPI), 488 (for FITC), and 568 (for rhodamine) nm were used to generate fluorescence emission in blue, green, and red respectively. […]

FPRL1 [10] = biological target: T2, FPRL1; assay: Aβ42/FPRL1 internalization in human macrophages, fluorescence confocal microscopy; assay type: cell-based; conditions: 30 min incubation at 37° C.
Protocol: as §5, with “FPRL1/293 cells were suspended in DMEM supplemented with 10% FBS (Hyclone, Logan, Utah), 1 mM glutamine (Gibco-BRL, Grand Island, N.Y.), and 800 μg/ml geneticin (G418, Gibco-BRL). The cells were also plated on 4-well chamber slides at a density of 2×10^5 cells/well.” left out
Fluorescence confocal microscope. […] The slides were mounted with an anti-fade, water-based mounting medium with 4,6-diamidino-2-phenylindole (DAPI; Vector Lab, Burlingame, Calif.) and analyzed under a laser scanning confocal fluorescence microscope (Leica TCS-4D DMIRBE, Heidelberg, Germany). Excitation wavelengths of 365 (for DAPI), 488 (for FITC), and 568 (for rhodamine) nm were used to generate fluorescence emission in blue, green, and red respectively. […]

macrophages [11] = assay: Apoptosis of macrophages (annexin-V-FITC/PI flow cytometry); assay type: cell-based, human; conditions: 48 h; 10 μM Aβ42 or 1 μM W pep
Protocol: (§6) Detection of apoptosis. Apoptotic cells were detected by double labeling with annexin-V-FITC and propidium iodide (P1). Annexin-V binds to phosphatidylserine residues, which are translocated from the inner to the outer leaflet of the plasma membrane during the early stages of apoptosis (Koopman G. et al. 1994 Blood 84:1415-1420; Martin S. J. et al. 1995 J Exp Med 182:1545-1556). Necrotic cells were distinguished from annexin-V-positive cells by counterstaining with PI (final concentration 1 μg/ml) (Heidenreich S. et al. 1997 J Immunol 159:3178-3188; Mangan D. F. et al. 1991 J Immunol 146:1541-1546. Apoptotic cells were labeled by using an annexin-V kit according to manufacturer's instructions (Santa Cruz Biotechnology, Santa Cruz, Calif.) and analyzed by flow cytometry.

FPRL1/293 cells = assay: Apoptosis of FPRL1/293 cells (annexin-V-FITC/PI flow cytometry); assay type: cell-based, human; conditions: 48 h; 10 μM Aβ42 or 1 μM W pep
Protocol: as §6

mouse N-formylpeptide receptor 2 (FPR2), on transfected HEK 293 cells or endogenous on mouse neutrophils and N9 microglial cells (mouse), sequence (O88536 whole entry): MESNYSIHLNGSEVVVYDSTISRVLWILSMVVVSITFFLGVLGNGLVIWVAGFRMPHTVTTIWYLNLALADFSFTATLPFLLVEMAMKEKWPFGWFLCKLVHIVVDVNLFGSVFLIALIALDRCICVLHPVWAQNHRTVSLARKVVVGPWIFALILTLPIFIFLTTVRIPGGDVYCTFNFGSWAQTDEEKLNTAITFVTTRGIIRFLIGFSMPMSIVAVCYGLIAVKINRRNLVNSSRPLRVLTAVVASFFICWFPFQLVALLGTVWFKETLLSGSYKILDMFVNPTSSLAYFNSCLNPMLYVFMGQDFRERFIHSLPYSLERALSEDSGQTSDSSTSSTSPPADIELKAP

GlyBSA: Glycated bovine albumin, a reported ligand for RAGE
Ca2+ mobilization in ETFR cells (FPR): stimulated Ca^2+ mobilization | Ca2+ mobilization in human monocytes (human monocytes [1]): potent inducer of Ca^2+ mobilization | effect of prior stimulation on subsequent Ca2+ flux response of monocytes to Aβ42 (desensitization) (human monocytes [1]): able to cross-desensitize the cell response to Aβ42 | Ca2+ mobilization in FPRL1/293 cells (FPRL1 [2]): stimulated Ca^2+ mobilization

bacterial chemotactic peptide formyl-methionyl-leucyl-phenylalanine (fMLF)
superoxide generation in neutrophils, EC50 in FPR -/- against FPR +/+ cells [3]: 10 fold

fucoidan
Ca2+ mobilization in human monocytes (human monocytes [1]): did not induce Ca^2+ mobilization | effect of prior stimulation on subsequent Ca2+ flux response of monocytes to Aβ42 (desensitization) (human monocytes [1]): did not affect monocyte response to subsequent stimulation with Aβ42

CSCC[C@H](NC=O)C(=O)N[C@@H](CC(C)C)C(=O)N[C@@H](Cc1ccccc1)C(=O)O [fMLF, formyl-methionyl-leucyl-phenylalanine]
effect of prior stimulation on subsequent Ca2+ flux response of monocytes to Aβ42 (desensitization) (human monocytes [1]): clearly inhibited the subsequent Ca^2+ flux response to Aβ42 | desensitization of Aβ42-induced Ca2+ flux in FPRL1/293 cells (FPRL1 [2]; prior stimulation): desensitized | difference of EC50 of superoxide generation, FPR −/− versus FPR+/+ neutrophils (mouse neutrophils [4]): 10 fold | effect of pretreatment on superoxide response to 10 μM Aβ (mouse neutrophils [4]; FPR −/− neutrophils, pretreated with 5 μM fMLF vs vehicle): markedly attenuated | optimum of second peak of chemotaxis dose-response curve (mouse neutrophils [5]): 10 µM | optimum of first peak of chemotaxis dose-response curve (mouse neutrophils [5]; peak due to FPR): ~500 nM

Aβ42 “aged”: Aβ42 aged at 37° C., tested as the aggregated form
induction of monocyte migration (human monocytes [6]): lower potency than freshly dissolved peptide

COc1cc2c(c(OC)c1OC)-c1ccc(OC)c(=O)cc1[C@@H](NC(C)=O)CC2 [colchicine]
inhibition of Aβ42-induced chemotaxis (FPRL1 [7]): potent inhibitor of Aβ42-induced chemotaxis | inhibition of Aβ42-induced chemotaxis (human monocytes [6]; monocytes): potent inhibitor of Aβ42-induced chemotaxis | effect on Congo red staining of macrophages incubated with Aβ42 (macrophages [8]; 48 h incubation with Aβ42): not significantly stained with Congo red | effect on internalization of Aβ42/FPRL1 complexes (FPRL1 [9]; 30 min incubation at 37° C.): failed to internalize | effect on internalization of Aβ42/FPRL1 complexes (FPRL1 [10]): failed to internalize

WKYMVm [W pep]
Congo red positive fibrils (macrophages [8]; incubation 24 h to 48 h): did not form Congo red positive fibrils | apoptosis (macrophages [11]): did not increase the apoptosis | apoptosis (FPRL1/293 cells): did not increase the apoptosis | time to maximal FPRL1 internalization (FPRL1 [9]; 37° C.): 15 to 30 min | time until FPRL1 is back on the cell surface after removal of agonist (receptor recycling) (FPRL1 [9]; agonist removed after 30 min): 2 h
